Format in all cases: in vivo
Assay [1] concerns pest eggs of Tetranychus cinnabarinus. Nature of the assay: Effect on hatching of pest eggs of Tetranychus cinnabarinus, leaf disc method. The conditions noted are these: for Hatching rate (%): 7 days after insecticide delivery. How it is done:
(§1) • (1) Preparation of leaf discs containing eggs: 20 female adult mites of Tetranychus cinnabarinus were transferred onto leaf discs of Vicia faba with a diameter of 2.0 cm (with wetted filter paper at the bottom), then covered it with a lidded culture dish and cultivated under moisturizing conditions, the adult mites were removed within 36 hours and microscopic examination and counting were performed on leaf discs containing eggs. • (2) Investigation of egg population base: Before pesticide soaking, a microscopic examination was conducted on the egg basic number of each leaf disc, with 2 replicates set for each treatment. • (3) Pesticide soaking treatment: The leaf butterflies loaded with mite eggs were soaked in clear water and sulfite compounds for 10 seconds, respectively, then taken out and cultivated under moisturizing conditions. Each treatment should be repeated for no less than 3 times. • (4) Cultivation and observation: The […] were cultivated under normal conditions. Five days after insecticide delivery, the hatching status of mite eggs was investigated. • Note: The temperature and humidity conditions of the constant temperature and humidity incubator after the treatment should be controlled so as to avoid excessive temperature differences, which may cause generation and dripping of condensate water in the culture dish, resulting in abnormal death of eggs due to soaking in water; it is also necessary to ensure sufficient strong ambient light, without directing irradiating the leaves. • (5) Survey of Results: The experimental materials of each treatment group were regularly hydrated and moisturized, and the hatching of eggs was observed. On the 7th day after insecticide delivery, the number of hatched eggs for each treatment was recorded, and the survey of results was recorded in the original notebook. According to the experimental requirements and characteristics of agents, the survey time can be shortened or extended. • 1) Surveying and recording the number of hatched eggs for each treatment. • 2) Photographing and recording whether there was any pesticide damage to the leaf discs of Vicia faba. • 3) Recording the developmental status of experimental mite eggs, behavior status of nymph mites, including abnormal phenomena such as delayed or stopped development of mite eggs, difficulty in breaking hull for nymph mites, or painful struggles after hatching, etc. • (6) Calculation method: Based on the survey data, the prevention and control effect of each treatment was calculated according to the following formula, and the calculation results were kept to two decimal places. [formula] [formula] [table]

The test system of assay [2] is eggs of Tetranychus urticae. Nature of the assay: Effect on hatching of eggs of Tetranychus urticae, leaf disc method. The conditions noted are these: 5 ppm; for Hatching rate (%): 5 days after insecticide delivery. As to the method:
as §1, with “extended.” for “extended. • 1) Surveying and recording the number of hatched eggs for each treatment. • 2) Photographing and recording whether there was any pesticide damage to the leaf discs of Vicia faba. • 3) Recording the developmental status of experimental mite eggs, behavior status of nymph mites, including abnormal phenomena such as delayed or stopped development of mite eggs, difficulty in breaking hull for nymph mites, or painful struggles after hatching, etc. • (6) Calculation method: Based on the survey data, the prevention and control effect of each treatment was calculated according to the following formula, and the calculation results were kept to two decimal places. [formula] [formula] [table]”
(§2) • 1) Surveying and recording the number of hatched eggs for each treatment. • 2) Photographing and recording whether there was any pesticide damage to the leaf discs of Vicia faba. • 3) Recording the developmental status of experimental mite eggs, behavior status of nymph mites, including abnormal phenomena such as delayed or stopped development of mite eggs, difficulty in breaking hull for nymph mites, or painful struggles after hatching, etc. • (6) Calculation method: Based on the survey data, the prevention and control effect of each treatment was calculated according to the following formula, and the calculation results were kept to two decimal places.
This test adopted the method in Test Example 1 of technical section, mainly used leaf disc method to explore the inhibitory effect on hatching of eggs of Tetranychus urticae by compounds 1-(S,S), 1-(S,R), 1-(R,R), 1-(R,S), 1′-(S,S), 1′-(S,R), 1′-(R,R), 1′-(R,S), compound 1, compound 1′, S-10, R-10, S-10′, R-10′, compound 10, compound 10′, compound 19-(S,S), 19-(S,R), 19-(R,R), 19-(R,S), 19′-(S,S), 19′-(S,R), 19′-(R,R), 19′-(R,S), compound 19, and compound 19′. The concentration of all compounds was 5 ppm.

A further assay relates to eggs of Thrips. Description: Effect on hatching of eggs of Thrips, leaf disc method. The conditions noted are these: 100 ppm; for Hatching rate (%): 5 days after insecticide delivery. How it is done: as §1, with “extended.” for “extended. • 1) Surveying and recording the number of hatched eggs for each treatment. • 2) Photographing and recording whether there was any pesticide damage to the leaf discs of Vicia faba. • 3) Recording the developmental status of experimental mite eggs, behavior status of nymph mites, including abnormal phenomena such as delayed or stopped development of mite eggs, difficulty in breaking hull for nymph mites, or painful struggles after hatching, etc. • (6) Calculation method: Based on the survey data, the prevention and control effect of each treatment was calculated according to the following formula, and the calculation results were kept to two decimal places. [formula] [formula] [table]”
as §2
This test adopted the method in Test Example 1 of technical section, mainly used leaf disc method to explore the inhibitory effect on hatching of eggs of Thrips by 1-(S,S), 1-(S,R), 1-(R,R), 1-(R,S), 1′-(S,S), 1′-(S,R), 1′-(R,R), 1′-(R,S), compound 1, compound 1′, S-10, R-10, S-10′, R-10′, compound 10, compound 10′, compound 19-(S,S), 19-(S,R), 19-(R,R), 19-(R,S), 19′-(S,S), 19′-(S,R), 19′-(R,R), 19′-(R,S), compound 19, and compound 19′. The concentration of all compounds was 100 ppm.

The mark [3] stands for this setting: Replicate 1, listed as 1-(R, R).
Where [4] appears, read: Replicate 2, listed as 1-(R, R).
Setting [5] is: Replicate 3, listed as 1-(R, R).
Setting [6] is: Replicate 1, listed as 1-(R, S).
[7] abbreviates: Replicate 2, listed as 1-(R, S).
Where [8] appears, read: Replicate 3, listed as 1-(R, S).
Where [9] appears, read: Replicate 1, listed as 1-(S, R).
[10] abbreviates: Replicate 2, listed as 1-(S, R).
Where [11] appears, read: Replicate 3, listed as 1-(S, R).

Each structure is given as a SMILES string.

In the case of `C[C@H](COS(=O)OCCF)Oc1ccc(Cl)cc1Cl` (stereo partly drawn) [1-(R,R)], the “Hatching rate (%)” value in assay [1] (0.25 mg/L, Replicate 1) amounted to 45.45%; in assay [1] (0.25 mg/L, Replicate 2), 45.10%; in assay [1] (0.5 mg/L, Replicate 1) it was 4.26%; in assay [1] (0.5 mg/L, Replicate 2) it was 5.56%; in assay [1] (1 mg/L, Replicate 1), 0.00%; in assay [1] (1 mg/L, Replicate 2), 0.00%. In addition, the “Hatching rate (%)” value (in assay [2] (setting [3]); in assay [2] (setting [4]); in the assay with eggs of Thrips (setting [3]); with eggs of Thrips (setting [4]); with eggs of Thrips (setting [5])) was 0.00% in each case. For the same molecule, the “Number of hatched larvae 7 days after insecticide delivery” value (from here on “Number of hatched larvae 7 days”) in assay [1] (0.25 mg/L, Replicate 1) was determined as 36; in assay [1] (0.25 mg/L, Replicate 2), 28; in assay [1] (0.5 mg/L, Replicate 1) it was 45; in assay [1] (0.5 mg/L, Replicate 2), 68; in assay [1] (1 mg/L, Replicate 1) it was 56; in assay [1] (1 mg/L, Replicate 2) it was 62. Also, in assay [1] (1 ppm), the “inhibitory effect on the hatching of pest eggs of Tetranychus cinnabarinus (in words)” value was “excellent inhibitory effects”. Further, the “inhibitory activity on the hatching of eggs of Tetranychus urticae (in words)” value in assay [2] is listed as “strong inhibitory activities”. Besides, the “Number of hatched larvae 5 days after insecticide delivery” value (from here on “Number of hatched larvae 5 days”) (in assay [2] (setting [3]); in assay [2] (setting [4]); in the assay with eggs of Thrips (setting [3]); in the assay on eggs of Thrips (setting [4]); in the assay on eggs of Thrips (setting [5])) was 0 throughout. Further, the “inhibitory activity on the hatching of eggs of Thrips (in words)” value with eggs of Thrips is reported as “strong inhibitory activities”.
For `C[C@H](COS(=O)OCCF)Oc1ccc(Cl)cc1Cl` (stereo partly drawn) [1-(R,S)], the “Hatching rate (%)” value in assay [1] (0.25 mg/L, Replicate 1) is 74.51%; in assay [1] (0.25 mg/L, Replicate 2) it was 76.47%; in assay [1] (0.5 mg/L, Replicate 1), 43.66%; in assay [1] (0.5 mg/L, Replicate 2), 48.98%; in assay [1] (1 mg/L, Replicate 1), 4.69%; in assay [1] (1 mg/L, Replicate 2), 6.67%. The “Hatching rate (%)” value in assay [2] (setting [6]) came out at 14.10%; in assay [2] (setting [7]), 12.70%; in the assay on eggs of Thrips (setting [6]), 9.57%; in the assay on eggs of Thrips (setting [7]), 9.02%; in the assay on eggs of Thrips (setting [8]), 7.95%. The “Number of hatched larvae 7 days” value in assay [1] (0.25 mg/L, Replicate 1) was determined as 13; in assay [1] (0.25 mg/L, Replicate 2), 14; in assay [1] (0.5 mg/L, Replicate 1), 40; in assay [1] (0.5 mg/L, Replicate 2), 25; in assay [1] (1 mg/L, Replicate 1), 61; in assay [1] (1 mg/L, Replicate 2), 42. The “Number of hatched larvae 5 days” value in assay [2] (setting [6]) came to 11; in assay [2] (setting [7]), 88; with eggs of Thrips (setting [6]), 9; in the assay on eggs of Thrips (setting [7]), 12; with eggs of Thrips (setting [8]), 7.
As to `C[C@@H](COS(=O)OCCF)Oc1ccc(Cl)cc1Cl` (stereo partly drawn) [1-(S,R)], the “Hatching rate (%)” value was 59.57% in assay [1] (0.25 mg/L, Replicate 1); 76.09% in assay [1] (0.25 mg/L, Replicate 2); 35.29% in assay [1] (0.5 mg/L, Replicate 1); 31.25% in assay [1] (0.5 mg/L, Replicate 2); 2.56% in assay [1] (1 mg/L, Replicate 1); 0.00% in assay [1] (1 mg/L, Replicate 2). Further, the “Hatching rate (%)” value in assay [2] (setting [9]) stood at 10.87%; in assay [2] (setting [10]), 12.16%; in the assay on eggs of Thrips (setting [9]) it was 12.06%; in the assay on eggs of Thrips (setting [10]), 8.33%; with eggs of Thrips (setting [11]) it was 10.28%. The “Number of hatched larvae 7 days” value in assay [1] (0.25 mg/L, Replicate 1) came out at 19; in assay [1] (0.25 mg/L, Replicate 2), 11; in assay [1] (0.5 mg/L, Replicate 1), 33; in assay [1] (0.5 mg/L, Replicate 2), 44; in assay [1] (1 mg/L, Replicate 1), 76; in assay [1] (1 mg/L, Replicate 2), 64. The “Number of hatched larvae 5 days” value in assay [2] (setting [9]) was 10; in assay [2] (setting [10]), 9; with eggs of Thrips (setting [9]), 17; with eggs of Thrips (setting [10]), 8; in the assay with eggs of Thrips (setting [11]), 11.

(Values after patent US20260184675A1, “CHIRAL ISOMERIC SULFITE COMPOUND AND APPLICATION THEREOF” (Chengdu Hanova BioSciences Co., Ltd, priority 2024, published 2026).)
